How the values were obtained:
beagle dogs = experiment: 7-day inhalation dose range finding toxicology, dog; type: in vivo
Description: Results & Discussion (Dogs). […] Dogs were exposed to either vehicle (citric acid/saccharin/sodium phosphate buffer), or Formulation I Inhalation Solution prepared in identical vehicle to achieve target doses of 2, 10 or 44 mg/kg/day for 7 days (Table 21). Administered doses were 2, 12 and 54 mg/kg/day. […] Methemoglobin levels in blood increased appreciably in the high-dose group and minimally above basal levels in the mid-dose group (Table 23). Gross necropsies of the treated groups were in general similar to controls which included the presence of small red foci in the lung area, were few in nature and not associated with a dose responsive test-article relationship. Histopathology included mild focal pneumonia with minimal to mild focal peribronchiolar/perivascular mononuclear cell infiltrate and minimal to mild focal alveolar mixed cell infiltrate in the lungs of both the vehicle and high dose groups (low- and mid-dose groups not examined). M/E ratios were decreased in high-dose group males. […] Therefore, based on the transient changes during this 7 day study, an NOAEL of 12 mg/kg/day was established.

SMILES: O=NO [sodium nitrite]
- Mortality (%) Female (beagle dogs; 2 mg/kg/day inhaled): 0%
- Mortality (%) Male (beagle dogs; 2 mg/kg/day inhaled): 0%
- Peak MetHgb (%) On Day 1 Female (beagle dogs; 2 mg/kg/day inhaled): 0.35 ± 0.4%
- Peak MetHgb (%) On Day 1 Male (beagle dogs; 2 mg/kg/day inhaled): 0.2 ± 0.1%
- Peak MetHgb (%) On Day 7 Female (beagle dogs; 2 mg/kg/day inhaled): 0.2 ± 0.0%
- Peak MetHgb (%) On Day 7 Male (beagle dogs; 2 mg/kg/day inhaled): 0.2 ± 0.0%
- Mortality (%) Female (beagle dogs; 12 mg/kg/day inhaled): 0%
- Mortality (%) Male (beagle dogs; 12 mg/kg/day inhaled): 0%
- Peak MetHgb (%) On Day 1 Female (beagle dogs; 12 mg/kg/day inhaled): 3.4 ± 1.3%
- Peak MetHgb (%) On Day 1 Male (beagle dogs; 12 mg/kg/day inhaled): 2.6 ± 0.5%
- Peak MetHgb (%) On Day 7 Female (beagle dogs; 12 mg/kg/day inhaled): 1.6 ± 0.2%
- Peak MetHgb (%) On Day 7 Male (beagle dogs; 12 mg/kg/day inhaled): 2.1 ± 0.5%
- Mortality (%) Female (beagle dogs; 54 mg/kg/day inhaled): 0%
- Mortality (%) Male (beagle dogs; 54 mg/kg/day inhaled): 0%
- Peak MetHgb (%) On Day 1 Female (beagle dogs; 54 mg/kg/day inhaled): 19 ± 0.5%
- Peak MetHgb (%) On Day 1 Male (beagle dogs; 54 mg/kg/day inhaled): 16 ± 5.2%
- Peak MetHgb (%) On Day 7 Female (beagle dogs; 54 mg/kg/day inhaled): 17 ± 2.6%
- Peak MetHgb (%) On Day 7 Male (beagle dogs; 54 mg/kg/day inhaled): 16 ± 3.2%
- % of particles < 3 μm (beagle dogs; Group 2 Low Dose): 86.2%
- MMAD (beagle dogs; Group 2 Low Dose): 1.2 μm
- % of particles < 3 μm (beagle dogs; Group 3 Mid Dose): 73.9%
- MMAD (beagle dogs; Group 3 Mid Dose): 1.7 μm
- % of particles < 3 μm (beagle dogs; Group 4 High Dose): 73.3%
- MMAD (beagle dogs; Group 4 High Dose): 1.9 μm
- hypoxia-induced elevated PAP (Isolated rabbit lungs; 16.7 mg/mL sodium nitrite in phosphate buffer or phosphate/citric acid buffer, 5 min nebulization): significantly reduced
- expired nitric oxide compared to control (Isolated rabbit lungs; both sodium nitrite preparations (phosphate buffer; citric acid/phosphate buffer)): significantly increased
- lung-delivered dose up to which lung weights (edema) were stable (Isolated rabbit lungs; mg sodium nitrite (2.8 mg nitrite)): up to 4.2 mg
- decrease of PAP compared with pre-drug hypoxic challenge (Isolated rabbit lungs; sodium nitrite in phosphate buffer or citric acid/phosphate buffer, nebulized during second hypoxic challenge (3% oxygen), p<0.05): over 50%
- half life of effect on hypoxia-induced PAP (Isolated rabbit lungs; sodium nitrite in phosphate buffer, nebulized during third hypoxic challenge): ~10 min
